In patent publication US8211883B2, “Topical delivery of phthalocyanines” (priority 2004, dated 2012):

What was measured:
[1] = system: Chinese hamster V79-379 lung fibroblasts; assay: Growth delay of V79 cultures after phthalocyanine and red light; format: cell-based; conditions: V79 cells, 1.0 μM, 18 hours, 12 kJ/m^2 red light
Experimental: At the time of light exposure, there were approximately 1.5×10^5 cells per 25 cm^2 flask. Following irradiation, the HBSS was replaced by 10 mL of fresh complete growth medium, and the cultures were returned to the 37° C. incubator. At various times before and after irradiation, duplicate cultures were trypsinized and counted. Controls included untreated cells and cells treated with light alone or drug alone. In addition, in each experiment, the drug to be tested was compared to a standard treatment, i.e. 1 μM AlPcCl for 18 hours followed by 12 kJ/m^2 light.
The inhibition of V79 culture growth was measured during a three day period following red light irradiation (12 kJ/m^2) of phthalocyanine-pretreated cells. With each of the active compounds, as well as with AlPcCl, there was an initial decrease in cell density, as dead cells became detached from the monolayer. Thereafter, the cell number per flask increased, as living cells grew and divided. The time for the cell density to recover to the level at the time of light exposure was considered the growth delay. […] The ratio of the growth delay for the test photosensitizer and the growth delay for AlPcCl measured in the same experiment is recorded in Table 1. There was less inhibition of culture growth when cells were exposed to compounds III, V, or VI as expected from the poor cellular uptake of these drugs.

[2] = system: Chinese hamster V79-379 lung fibroblasts; assay: Uptake of phthalocyanines into V79 cells; conditions: V79 cells, 1.0 μM, 18 hours
How it was run: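 V79-379 cells were incubated with phthalocyanine for 18 h, typically at 1, 2 and/or 4 μM. Cells collected on filters were extracted into ethanol and absorbance read at the peak, usually 668 nm. Values are nmol per 10^6 cells, using ε 2.93×10^5.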

[3] = Photolysis of solutions by white light; format: physicochemical
[4] = system: Chinese hamster V79-379 lung fibroblasts; assay: Clonogenic cell survival of V79 cells after photodynamic treatment; format: cell-based; conditions: for CF10(AIPcCI)/CF10 (Pc) / F10(AIPcCI)/F10 (Pc): 1.0 μM; for CF10(AIPcCI)/CF10 (Pc): CF10 = product of intracellular concentration and fluence reducing survival to 10%; for F10(AIPcCI)/F10 (Pc): F10 = fluence reducing cell survival to 10%
How it was run: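 V79 cells exposed to 0.5 or 1.0 μM phthalocyanine, then irradiated about 18 h later with increasing fluences of broad-band red light (600 nm high-pass filter). Survival scored as colonies of ≥50 cells. F10 taken from survival curves; CF10 from survival against intracellular concentration × fluence; 1 μM AlPcCl run as reference.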

Solubility = format: physicochemical
[5] = system: RIF-1 (radiation-induced fibrosarcoma) tumors; assay: PDT of RIF-1 implanted tumors; format: in vivo, C3H/HeN mice; set-up: key to Tumor Responses at 24 hours: complete: no evidence of any tumor mass in any animal; only the scar from the photodynamic therapy was evident.; near complete: evidence of any tumor mass in four or five animals; only some tumor mass in one or two animals.; substantial: a significant tumor shrinkage occurred in all animals. In some animals the tumor response was complete, yet in others the response was not complete.; moderate: some tumor shrinkage was evident in some animals. In animals with some tumor shrinkage, scar formation was evident.; slight: some tumor decrease occurred in one or two mice; conditions: 1 mg/kg in corn oil, 675 nm
Experimental: The relative effectiveness at reducing tumor volume of selected phthalocyanine compounds at a given dosage was compared in vivo. RIF-1, i.e., radiation-induced fibrosarcoma, tumors were implanted into the backs of C3H/HeN mice. One tumor was implanted per mouse. Each of the phthalocyanine compounds listed in Table 7 was sonicated and vortexed in corn oil to produce a suspension. When the tumors reached […] in diameter and 2-3 mm in thickness, each mouse received 1 mg/kg in 0.1 mL of the corn oil, of the phthalocyanine suspension. For comparison, select mice received a conventional photosensitizer; either 5 mg/kg of chloroaluminum phthalocyanine tetrasulfonate, herein also referred to as “AlPcTS” in phosphate buffered saline or 5 mg/kg of Photofrin®-II in 5% dextrose. Twenty-four hours after the photosensitizers were administered, the tumors were irradiated with visible radiation delivered by an argon-pumped dye laser. The mice that received a phthalocyanine photosensitizer received light having a wavelength of 675 nm and the mice that received the Photofrin® II photosensitizer received light having a wavelength of 630 nm. Each tumor received 135 J/cm^2 of radiation. Tumor size was measured every day using calipers. The initial tumor volume was 50±10 mm^3. Tumor volume was calculated according to the hemiellipsoid model by the formula: V=½(4π)/3×(½×(w/2))×h
• complete—no evidence of any tumor mass in any animal; only the scar from the photodynamic therapy was evident. • near complete—evidence of […] in four or five animals; only some tumor mass in one or two animals. • substantial—a significant tumor shrinkage occurred in all animals. In some animals the tumor response was complete, yet in others the response was not complete. • moderate—some tumor shrinkage was evident in some animals. In animals with some tumor shrinkage, scar formation was evident. • slight—some tumor decrease occurred in one or two mice.

L5178Y cells = assay: Induction of apoptosis (DNA ladder) in L5178Y cells after PDT; format: cell-based, Mouse; conditions: for induction of apoptosis: 1 μM at a fluence of 30 kJ/m^2; for Fluence, Minimum Demonstrated Condition to Induce Apoptosis / C × F Ld90, Minimum Demonstrated Condition to Induce Apoptosis: 0.5 μM; for Fluence, Minimum Demonstrated Condition to Induce Apoptosis: suspended in DMF-Tween 80; for C × F Ld90, Minimum Demonstrated Condition to Induce Apoptosis: suspended in DMF-Tween 80, product of concentration and fluence
[6] = system: human skin keratome biopsies; assay: Penetration of topically applied PcIV and salts into human skin, confocal fluorescence microscopy; format: in vitro ADME; conditions: compared to PcIV
Experimental: Human skin absorption of PcIV was analyzed by fluorescence confocal microscopy. PcIV fluorescence, upon activation with a HeNe laser at 633 nm, was visualized using a 650 long pass filter. Briefly, 0.4 mm thick human keratomes were removed from the gluteal region of healthy volunteers and divided into 1.5 cm×1.5 cm squares of skin. Upon application of PcIV to the epidermis in a vehicle of ethanol and propylene glycol, visualization of penetration of PcIV was achieved by fluorescence. Pc 4 was then prepared as PcIV-pyruvate and PcIV-HCl and applied in the same vehicle as Pc 4 to the epidermis. Three concentrations, namely, 0.1 mg/mL, 0.05 mg/mL, and 0.01 mg/mL were tested per PcIV formulation. Skin was incubated at 37° C. for 1, 2, and 4 hours, along with vehicle controls. […] Maximum PcIV fluorescence was detectable using laser transmission of 3% for the 0.1 mg/mL and 30% for the 0.01 mg/mL. Both PcIV.pyruvate and PcIV.HCl however could be visualized with a laser transmission of 2-3% for the 0.1 mg/mL and 7-9% for the 0.01 mg/mL concentrations.
The ability of PcIV and the newly prepared PcIV salts (HCl and pyruvate) to penetrate into the epidermis of keratome derived biopsies was examined. The time course of penetrance as well as the effect of dose of the PcIV compounds were evaluated. PcIV and the PcIV.HCl and PcIV.pyruvate salts were resuspended in ethanol (100%, 1 part PcIV, 499 parts ethanol) and then diluted to final concentrations in a 30% Propylene Glycol 70% Ethanol mixture.
Keratome biopsies of normal skin were obtained from normal volunteers after written consent according to UHHS IRB protocol # 05-95-03. To date, seven experiments have been performed. The range of age for volunteers was 20-40 yrs. Individuals represented Fitzpatrick skin types between I-III. Skin biopsies were held in PBS following the keratome procedure until processed for PcIV Application (less than 1 hr). The keratome skin samples (1.5 cm^2) were overlayed onto sterile gauze in 80 mm tissue culture petri dishes epidermal side down. PcIV compounds were then applied to the corners of the sterile gauze and allowed to “wick” through the gauze and contact the epidermis of the skin for the indicated times. Following the incubation, the tissue was removed from the gauze and washed three times in phosphate buffered saline and held, in PBS, until analysis by confocal microscopy. Confocal images were acquired using a 20×N.A. 0.5 water immersion objective on a Zeiss 510 confocal microscope. PcIV fluorescence was elicited using a 633 nm wavelength for excitation, and collected with a 633 nm dichroic mirror and 650 nm long-pass filter.

[7] = system: human breast cancer MCF-7c3 cells; assay: Uptake of PcIV salts into MCF-7c3 cells by flow cytometry; conditions: 50, 100 or 200 nM, 60 minutes, mean channel fluorescence normalized to PcIV
Experimental: Cells were grown in 5 mL of RPMI-1640 medium supplemented with 10% fetal calf serum in 60-mm diameter Petri dishes in a 37° C. incubator in an atmosphere of 5% CO2, 95% air. Cultures were used when they were in exponential growth. For experiments, various concentrations (50, 100, or 200 nM) of each compound (PcIV, PcIV-HCl, PcIV-pyruvate), were added to the medium above the cells, and the dishes were returned to the incubator for 60 minutes to allow the photosensitizers to enter the cells. To evaluate uptake, the medium was removed, and the cells were detached from the plastic surface with trypsin and collected by centrifugation. The cell pellet was suspended in phenol-red-free Hank's balanced salt solution and analyzed by flow cytometry (λex=335-355 nm; emission collected through a 650-nm long-pass filter). For each cell sample, the data were expressed as the mean channel fluorescence and background was subtracted. Data for each concentration of the PcIV salts were then normalized to those for the same concentration of PcIV in the same experiment. […] Error bars represent the standard deviation of the mean.

## CN(C)CCC[Si](C)(C)O[Si]1(C)n2c3c4ccccc4c2N=C2N=C(N=c4c5ccccc5c(n41)=NC1=NC(=N3)c3ccccc31)c1ccccc12 (centres unmarked) [Compound III, CH3SiPcOSi(CH3)2(CH2)3N(CH3)2]
[1]
  Growth Delay (12 kj/m^2), Efficiency Relative to 1 μM (AlPcCl): 0.05
[2]
  Uptake, Efficiency Relative to 1 μM (AlPcCl): 0.07
[3]
  photolysis of solutions: rapidly photolyzed by white light

## C[N+](C)(C)CCC[Si](C)(C)O[Si]1(O)n2c3c4ccccc4c2N=C2N=C(N=c4c5ccccc5c(n41)=NC1=NC(=N3)c3ccccc31)c1ccccc12.[I-] (centres unmarked) [Compound V, HOSiPcOSi(CH3)2(CH2)3N(CH3)3^+I^−]
[1]
  Growth Delay (12 kj/m^2), Efficiency Relative to 1 μM (AlPcCl): 0
[4]
  CF10(AIPcCI)/CF10 (Pc): 3.0
  F10(AIPcCI)/F10 (Pc): 0.59
Solubility
  solubility in H2O: insoluble
[5]; 135 J/cm^2, light 24 h after dosing
  Tumor Responses at 24 hours: moderate
[5]; 135 J/cm^2, controls 4 days
  Doubling Time of Initial Tumor Volume after PDT: 6 days
[2]
  Uptake, Efficiency Relative to 1 μM (AlPcCl): 0.3
L5178Y cells
  induction of apoptosis: did not induce apoptosis

## C[N+](C)(C)CCC[Si](C)(C)O[Si]1(O[Si](C)(C)CCC[N+](C)(C)C)n2c3c4ccccc4c2N=C2N=C(N=c4c5ccccc5c(n41)=NC1=NC(=N3)c3ccccc31)c1ccccc12.[I-].[I-] [Compound VI, SiPc[OSi(CH3)2(CH2)3N(CH3)3)^+I^−]2]
[1]
  Growth Delay (12 kj/m^2), Efficiency Relative to 1 μM (AlPcCl): 0.5
Solubility
  solubility in H2O: disperses in H2O but doses not dissolve in it
[2]
  Uptake, Efficiency Relative to 1 μM (AlPcCl): 0.1
L5178Y cells
  induction of apoptosis: did not induce apoptosis

## CN1CCN(CCC[Si](C)(C)O[Si]2(O[Si](C)(C)CCCN3CCN(C)CC3)n3c4c5ccccc5c3N=C3N=C(N=c5c6ccccc6c(n52)=NC2=NC(=N4)c4ccccc42)c2ccccc23)CC1 [Compound XXX, SiPc[OSi(CH3)2(CH2)3NC4H8NCH3]2]
[4]; concentration not given, at 10 kj/m^2
  Maximum Effect (% survival at kj/m^2): 30% at 10
Solubility
  solubility in DMF: not soluble in DMF
L5178Y cells
  Fluence, Minimum Demonstrated Condition to Induce Apoptosis: 15.0 kJ/m^2
  C × F Ld90, Minimum Demonstrated Condition to Induce Apoptosis: 7.5 kJ/m^2

## C[Si](C)(CCCN1CCNCC1)O[Si]1(O[Si](C)(C)CCCN2CCNCC2)n2c3c4ccccc4c2N=C2N=C(N=c4c5ccccc5c(n41)=NC1=NC(=N3)c3ccccc31)c1ccccc12 [Compound XXXII, SiPc[OSi(CH3)2(CH2)3NC4H8NH]2]
Solubility
  solubility in DMF: not soluble in DMF
L5178Y cells
  Fluence, Minimum Demonstrated Condition to Induce Apoptosis: 5 kJ/m^2
  C × F Ld90, Minimum Demonstrated Condition to Induce Apoptosis: 2.5 kJ/m^2

## CC(=O)C(=O)O.CN(C)CCC[Si](C)(C)O[Si]1(O)n2c3c4ccccc4c2N=C2N=C(N=c4c5ccccc5c(n41)=NC1=NC(=N3)c3ccccc31)c1ccccc12 (centres unmarked) [PcIV-pyruvate, HOSiPcOSi(CH3)2(CH2)3N(CH3)2(CH3C(O)COOH)]
[6]
  effect of salt formulation on penetration through the skin: does not hinder the penetration
[7]
  efficiency in entering MCF-7c3 cells compared to PcIV: at least as efficient, and possibly more efficient

## AlPcOSi(CH3)2(CH2)3N(CH3)3^+I^− [Compound II]
[1]
  Growth Delay (12 kj/m^2), Efficiency Relative to 1 μM (AlPcCl): 3.4
[4]
  CF10(AIPcCI)/CF10 (Pc): 0.72
  F10(AIPcCI)/F10 (Pc): 0.99
Solubility
  solubility in H2O: insoluble
[2]
  Uptake, Efficiency Relative to 1 μM (AlPcCl): 1.8
